What is called IC50 is the concentration at which inhibition is half-maximal. Lower therefore signals inhibition by little substance.

Assay [1] has as its target T1, murine MEKK2 (mMEKK2) (Mus musculus, UniProt Q61083).
T1 sequence (Q61083 1-619): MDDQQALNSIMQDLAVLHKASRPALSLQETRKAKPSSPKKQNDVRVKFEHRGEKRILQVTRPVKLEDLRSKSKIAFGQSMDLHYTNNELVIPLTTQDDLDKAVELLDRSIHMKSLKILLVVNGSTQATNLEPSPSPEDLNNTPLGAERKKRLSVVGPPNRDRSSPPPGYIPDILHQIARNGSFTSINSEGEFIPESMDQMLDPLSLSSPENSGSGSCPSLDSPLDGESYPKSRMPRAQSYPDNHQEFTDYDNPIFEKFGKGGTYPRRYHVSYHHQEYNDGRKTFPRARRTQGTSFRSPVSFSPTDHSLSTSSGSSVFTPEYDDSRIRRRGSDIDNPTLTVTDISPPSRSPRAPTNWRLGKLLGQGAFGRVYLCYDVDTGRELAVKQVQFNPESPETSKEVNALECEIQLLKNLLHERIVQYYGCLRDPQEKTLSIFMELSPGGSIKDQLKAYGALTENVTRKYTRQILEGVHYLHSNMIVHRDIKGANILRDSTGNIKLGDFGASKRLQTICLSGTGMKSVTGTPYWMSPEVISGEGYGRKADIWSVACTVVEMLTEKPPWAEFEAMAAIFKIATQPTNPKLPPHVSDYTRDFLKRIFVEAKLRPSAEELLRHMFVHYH
As to the kind of experiment: TR-FRET kinase assay (mMEKK2/MBP). Format: biochemical. The settings on record: substrate biotin MBP, 60 minutes at room temperature. The procedure, abridged:
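mMEKK2 was preincubated 10 min with compound in pH 7.5 Hepes/MgCl2/DTT/vanadate buffer, then biotin-MBP, anti-phospho-MBP antibody and ATP (5 uM solution added) were added and the reaction ran 60 min at room temperature. After EDTA stop, europium anti-mouse IgG and Cy5-streptavidin were added and TR-FRET was read at 615/665 nm.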
A general note: TR-FRET usually uses a lanthanide donor and a delayed reading to cut background.

The target of assay [2] is T1, murine MEKK2 (mMEKK2). As to the kind of experiment: MEKK2 PhosphoELISA (mMEKK2/MKK4). The settings on record: substrate MKK4/SKK1 (unactive), ATP final 10 μM, O.D. 450 nm. Format: biochemical. From the text:
Another useful method for assessing protein kinase inhibition, and specifically MEKK2 inhibition, of compounds of the invention involves the MEKK2 phospho-antibody enzyme-linked immunosorbent assay (PhosphoELISA). This screening panel, which involves relatively few steps, is a useful indicator of potential inhibitors of MEKK2. Reactions to murine MEKK2 are observed as optical density measurements at an absorbance of 450 nm. Inhibitory activities can be expressed in terms of IC50, where IC50 is the molar concentration of compound required to inhibit protein kinase binding by 50%.
A phospho-antibody enzyme-linked immunosorbent assay (PhosphoELISA) was used to screen potential inhibitors of MEKK2. The assay was performed as follows: Compounds to be tested were weighed and solubilized in DMSO (Sigma) to a stock concentration of 10 mM. Serial dilutions starting from 1 mM were prepared with additional DMSO. These dilutions were further diluted to 250 μM in kinase reaction buffer [20 mM Hepes pH 7.5, 5 mM MgCl2, 1 mM DTT (Dithiothreitol-Sigma), 1 mM NaVO4 (sodium vanadate- Sigma). A 25 μl aliquot of this solution was transferred to a glutathione coated 96-well microplate (Pierce). A stock aliquot containing 50-125 ng of murine MEKK2 (mMEKK2) was added to each well and incubated on the microplate for 10 minutes at room temperature. A 25 μl solution of MKK4/SKK1 (unactive) was diluted 1:200 in kinase assay buffer and added to the reaction plate followed by 50 μl of 25 μM ATP (adenosine triphosphate) to afford a final well concentration of 10 μM. The reaction was allowed to proceed for 60 minutes at room temperature before washing 3 times with wash buffer [100 mM phosphate pH 7.5, 0.05% TWEEN 20 (Sigma)]. A solution of anti-phospho MKK4/SEK1 antibody (Calbiochem) and biotin anti rabbit IgG (Jackson Immunoresearch) was diluted 1:2500 in kinase reaction buffer and added to the appropriate wells. The reaction was incubated for 60 minutes at room temperature. The microplate was washed 3 times with wash buffer and 100 ul of streptavidin horseradish peroxidase (HRP-Pierce) was added and incubated for 30 minutes at room temperature. The microplate was washed 3 times with wash buffer and 100 μl of TMB (3,3′,5,5′-tetramethylbenzidine-Sigma) was added. The assay was allowed to develop for 15-20 minutes then the reaction was stopped with the addition of 100 μl of 0.2 N sulfuric acid. The optical density (O.D.) of the plate was read on the Victor™ plate reader using the absorbance at 450 nm.

As for `N#Cc1c(-c2cccc(-c3cc4ccccc4s3)c2)nc(SCc2cccc(NC(=O)c3ccc(Cl)c(Cl)c3)c2)[nH]c1=O` [Example 2z, N-{3-[4-(3-Benzo[b]thiophen-2-yl-phenyl)-5-cyano-6-oxo-1,6-dihydro-pyrimidin-2-ylsulfanylmethyl]-phenyl}-3,4-dichloro-benzamide], the concentration for half-maximal inhibition (IC50) against murine MEKK2 (mMEKK2) [1] and against murine MEKK2 (mMEKK2) [2] was below 1 µM in each case.
Consider `N#Cc1c(-c2cccc([N+](=O)[O-])c2)nc(SCc2cccc(NC(=O)c3ccc(Cl)c(Cl)c3)c2)[nH]c1=O` [Example 2ii, 3,4-Dichloro-N-{3-[5-cyano-4-(3-nitro-phenyl)-6-oxo-1,6-dihydro-pyrimidin-2-ylsulfanylmethyl]-phenyl}-benzamide], for which the IC50 is below 5 µM on murine MEKK2 (mMEKK2) [1] and below 1 µM on murine MEKK2 (mMEKK2) [2].
For `COc1cccc(-c2nc(SCc3cccc(NC(=O)c4ccc(Cl)c(Cl)c4)c3)[nH]c(=O)c2C#N)c1` [Example 2h], the IC50 on murine MEKK2 (mMEKK2) [1] and on murine MEKK2 (mMEKK2) [2] was below 5 µM in each case.
`N#Cc1c(-c2cccc(N)c2)nc(SCc2cccc(NC(=O)c3ccc(Cl)c(Cl)c3)c2)[nH]c1=O` [Example 4n]: the IC50 against murine MEKK2 (mMEKK2) [1] and against murine MEKK2 (mMEKK2) [2] was below 10 µM throughout.
For the molecule `COc1ccc(-c2nc(SCc3cccc(NC(=O)c4ccc(Cl)c(Cl)c4)c3)[nH]c(=O)c2C#N)cc1-c1cccs1` [Example 2y, 3,4-Dichloro-N-{3-[5-cyano-4-(4-methoxy-3-thiophen-2-yl-phenyl)-6-oxo-1,6-dihydro-pyrimidin-2-ylsulfanylmethyl]-phenyl}-benzamide], the IC50 is below 5 µM at murine MEKK2 (mMEKK2) [1] and below 1 µM on murine MEKK2 (mMEKK2) [2].
Take `N#Cc1c(-c2ccccc2OC(F)(F)F)nc(SCc2cccc(NC(=O)c3ccc(Cl)c(Cl)c3)c2)[nH]c1=O` [Example 2dd, 3,4-Dichloro-N-{3-[5-cyano-6-oxo-4-(2-trifluoromethoxy-phenyl)-1,6-dihydro-pyrimidin-2-ylsulfanylmethyl]-phenyl}-benzamide]: the IC50 against murine MEKK2 (mMEKK2) [1] and against murine MEKK2 (mMEKK2) [2] was below 5 µM in each case.
`N#Cc1c(-c2ccc(-c3cc4ccccc4s3)cc2)nc(SCc2cccc(NC(=O)c3ccc(Cl)c(Cl)c3)c2)[nH]c1=O` [Example 2aa, N-{3-[4-(4-Benzo[b]thiophen-2-yl-phenyl)-5-cyano-6-oxo-1,6-dihydro-pyrimidin-2-ylsulfanylmethyl]-phenyl}-3,4-dichloro-benzamide] returned an IC50 on murine MEKK2 (mMEKK2) [2] below 1 µM.
Regarding `N#Cc1c(-c2ccc(OC(F)(F)F)cc2)nc(SCc2cccc(NC(=O)c3ccc(Cl)c(Cl)c3)c2)[nH]c1=O` [Example 2hh, 3,4-Dichloro-N-{3-[5-cyano-6-oxo-4-(4-trifluoromethoxy-phenyl)-1,6-dihydro-pyrimidin-2-ylsulfanylmethyl]-phenyl}-benzamide], the IC50 on murine MEKK2 (mMEKK2) [1] is below 40 µM; against murine MEKK2 (mMEKK2) [2], below 20 µM.
As for `COc1cccc(-c2nc(SCc3cccc(NCc4ccc(Cl)c(Cl)c4)c3)[nH]c(=O)c2C#N)c1` [Example 1a, 2-[3-(3,4-Dichloro-benzylamino)-benzylsulfanyl]-4-(3-methoxy-phenyl)-6-oxo-1,6-dihydro-pyrimidine-5-carbonitrile], the IC50 on murine MEKK2 (mMEKK2) [1] and on murine MEKK2 (mMEKK2) [2] was below 1 µM each time.
With `N#Cc1c(-c2ccc(C(F)(F)F)cc2)nc(SCc2cccc(NC(=O)c3ccc(Cl)c(Cl)c3)c2)[nH]c1=O` [Example 2ff, 3,4-Dichloro-N-{3-[5-cyano-6-oxo-4-(4-trifluoromethyl-phenyl)-1,6-dihydro-pyrimidin-2-ylsulfanylmethyl]-phenyl}-benzamide], the IC50 at murine MEKK2 (mMEKK2) [1] and against murine MEKK2 (mMEKK2) [2] was below 5 µM throughout.
For `N#Cc1c(-c2ccc(-n3cccc3)cc2)nc(SCc2cccc(NC(=O)c3ccc(Cl)c(Cl)c3)c2)[nH]c1=O` [Example 4s], the concentration for half-maximal inhibition (IC50) against murine MEKK2 (mMEKK2) [2] is below 1 µM.
With `COc1ccc(-c2nc(SCc3cccc(NCc4ccc(Cl)c(Cl)c4)c3)[nH]c(=O)c2C#N)cc1-c1cccs1` [Example 1c], the IC50 against murine MEKK2 (mMEKK2) [1] is below 5 µM; at murine MEKK2 (mMEKK2) [2], below 1 µM.
Take `N#Cc1c(-c2ccc(-n3cccn3)cc2)nc(SCc2cccc(NC(=O)c3ccc(Cl)c(Cl)c3)c2)[nH]c1=O` [Example 4t]: the IC50 against murine MEKK2 (mMEKK2) [2] is below 20 µM.
With `COc1cccc(-c2nc(SCc3cccc(NCc4cccc(Oc5ccc(Cl)cc5)c4)c3)[nH]c(=O)c2C#N)c1` [Example 1cc], the 50% inhibitory concentration (IC50) against murine MEKK2 (mMEKK2) [1] and against murine MEKK2 (mMEKK2) [2] was below 1 µM throughout.
At murine MEKK2 (mMEKK2) [2], `CCOC(=O)C1CCN(c2ccccc2-c2nc(SCc3cccc(NC(=O)c4ccc(Cl)c(Cl)c4)c3)[nH]c(=O)c2C#N)CC1` [Example 4x] had an IC50 above 40 µM.
Same read-out and setting: then `N#Cc1c(-c2cccc(N3CCCC3)c2)nc(SCc2cccc(NC(=O)c3ccc(Cl)c(Cl)c3)c2)[nH]c1=O` [Example 4w], with below 1 µM.
`COc1cccc(-c2nc(SCc3cccc(NCc4ccc5cccc(O)c5n4)c3)[nH]c(=O)c2C#N)c1` [Example 1v]: the IC50 at murine MEKK2 (mMEKK2) [1] and on murine MEKK2 (mMEKK2) [2] was below 1 µM each time.
As for `COc1cccc(-c2nc(SCc3cccc(NCc4ccccc4)c3)[nH]c(=O)c2C#N)c1` [Example 1d], the IC50 against murine MEKK2 (mMEKK2) [1] and against murine MEKK2 (mMEKK2) [2] was below 5 µM each time.
`COc1cccc(-c2nc(SCc3cccc(NCc4cccc(OCCN(C)C)c4)c3)[nH]c(=O)c2C#N)c1` [Example 4a]: the IC50 against murine MEKK2 (mMEKK2) [2] was above 40 µM.
Still for that read-out and setting: then `N#Cc1c(-c2cccc(-c3cc4ccccc4[nH]3)c2)nc(SCc2cccc(NC(=O)c3ccc(Cl)c(Cl)c3)c2)[nH]c1=O` [Example 2kk, 3,4-Dichloro-N-(3-{5-cyano-4-[3-(1H-indol-2-yl)-phenyl]-6-oxo-1,6-dihydro-pyrimidin-2-ylsulfanylmethyl}-phenyl)-benzamide], with below 5 µM.
On to `N#Cc1c(-c2cccc(C(F)(F)F)c2)nc(SCc2cccc(NC(=O)c3ccc(Cl)c(Cl)c3)c2)[nH]c1=O` [Example 2gg, 3,4-Dichloro-N-{3-[5-cyano-6-oxo-4-(3-trifluoromethyl-phenyl)-1,6-dihydro-pyrimidin-2-ylsulfanylmethyl]-phenyl}-benzamide], for which the IC50 against murine MEKK2 (mMEKK2) [1] was above 40 µM; on murine MEKK2 (mMEKK2) [2] it was below 5 µM.
With `N#Cc1c(-c2ccccc2-c2cc3ccccc3s2)nc(SCc2cccc(NC(=O)c3ccc(Cl)c(Cl)c3)c2)[nH]c1=O` [Example 2bb, N-{3-[4-(2-Benzo[b]thiophen-2-yl-phenyl)-5-cyano-6-oxo-1,6-dihydro-pyrimidin-2-ylsulfanylmethyl]-phenyl}-3,4-dichloro-benzamide], the IC50 was below 5 µM against murine MEKK2 (mMEKK2) [1] and below 1 µM on murine MEKK2 (mMEKK2) [2].
For the molecule `COc1ccc(-c2nc(SCc3cccc(NCc4ccc(Cl)c(Cl)c4)c3)[nH]c(=O)c2C#N)cc1OC` [Example 1b, 2-[3-(3,4-Dichloro-benzylamino)-benzylsulfanyl]-4-(3,4-dimethoxy-phenyl)-6-oxo-1,6-dihydro-pyrimidine-5-carbonitrile], the IC50 on murine MEKK2 (mMEKK2) [1] was below 5 µM; against murine MEKK2 (mMEKK2) [2] it was below 1 µM.
At murine MEKK2 (mMEKK2) [2], `N#Cc1c(-c2cccc(S(=O)(=O)NCc3ccccc3)c2)nc(SCc2cccc(NC(=O)c3ccc(Cl)c(Cl)c3)c2)[nH]c1=O` [Example 4p] gave an IC50 below 5 µM.
Regarding `COc1cccc(-c2nc(SCc3cccc(NC(=O)c4c(-c5ccccc5)noc4C)c3)[nH]c(=O)c2C#N)c1` [Example 2i], the IC50 at murine MEKK2 (mMEKK2) [1] and against murine MEKK2 (mMEKK2) [2] was below 10 µM each time.
For the molecule `CCc1nc(C)c(-c2nc(SCc3cccc(NC(=O)c4ccc(Cl)c(Cl)c4)c3)[nH]c(=O)c2C#N)[nH]1` [Example 4dd], the IC50 at murine MEKK2 (mMEKK2) [2] is above 40 µM.

Values taken from patent US20060100226A1, “2-Thiopyrimidinones as therapeutic agents” (priority 2004, published 2006).
